Experiments:
Cyclin D1 gene = assay: Quantitative real-time RT-PCR of Cyclin D1; type: cell-based, human; conditions: 24 h
Description: (§1) Levels of mRNA expression were analyzed with the RT-PCR assay, with total RNA isolated from MCF-7 or MCF-7/DOX cells using an EASYspin Plus tissue/cell RNA extraction kit (Aidlab Biotechnologies Co. Ltd). RNA was quantified by measuring absorption at 260 nm and 1 μg of RNA was reverse transcribed to cDNA using the Transcriptor First Strand cDNA Synthesis Kit (Roche Diagnostics, Basel, Switzerland). Thermal cycling conditions included 95 °C initial denaturation for 5 min, followed by 40 cycles of denaturation (10 s at 95 °C), annealing (15 s at 60 °C) and extension (15 s at 72 °C with a single fluorescence measurement), a melt curve program (60–95 °C with a 0.11 °C/s heat increase and continuous fluorescence measurement) and a cooling step to 40 °C. The Δ cycle threshold method was used for the calculation of relative differences in mRNA abundance with a LightCycler 480 (Roche Molecular Biochemicals, Mannheim, Germany). The data were normalized to the expression of GAPDH. The results were expressed as fold-changes. The RT-PCR primers that were used in this study are listed in the supporting information.

STAT3 [1] = assay: EMSA of STAT3 DNA-binding activity (hSIE probe); type: cell-based, human; conditions: nuclear extracts of MCF-7 cells, 24 h
Description: MCF-7 cells were cultured overnight and then treated with compound 6b in fresh regular growth medium for 24 h. The cells were harvested and nuclear extract preparations and EMSA analysis were carried out as previously described. The ^32P-labeled oligonucleotide, hSIE probe, was used to bind STAT3.

MCF-7 cells = assay: MTT anti-proliferative assay, MCF-7; type: cell-based, human; conditions: Homo sapiens, MCF7, 48 h, read-out: MCF-7 IC50 ± SD
Description: (§2) All cell lines were purchased from Cell Bank of Shanghai Institute of Biochemistry and Cell Biology, Chinese Academy of Sciences (Shanghai, China). Human breast carcinoma cells (MCF-7 and MCF-7/DOX), breast epithelial cells (MCF-10A) and normal human liver cells (LO2) were maintained in RPMI-1640 medium. All cells were supplemented with 12% fetal bovine serum containing 50 μg/ml penicillin and 50 μg/ml streptomycin. Cells were grown to 80% confluency in a tissue culture flask at 37 °C in a humidified atmosphere containing 5% CO2, and then were trypsinized with 1 × Trypsin-Versene and split. The MCF-7/DOX cell line we used was established from its parental cell line MCF-7 cell by gradually increasing the concentration of DOX to which the cells were exposed in a stepwise manner over a period of 8 months. […] The cells were incubated in drug-free medium for at least 1 week before use.
(§3) Cells (MCF-7, MCF-7/DOX, MCF-10A, LO2) were seeded in 96-well plates at a density of 3,000–6,000 cells per well. The cells were incubated overnight (16 h) in a humidified 5% CO2 incubator at 37 °C. After media removal, different concentrations of test compounds were added in triplicate to the plates in 200 μL of fresh media and were incubated with the cells at 37 °C for 48 h. […] Cell viability was evaluated using 3-(4, 5-dimethylthiazolyl)-2,5-diphenyltetrazoliumbromide (MTT). The absorbance was read by an ELISA reader (SpectraMax Plus384, Molecular Devices, Sunnyvale, CA) at a test wavelength of 570 nm and a reference wavelength of 630 nm. Cell viability was calculated using the following formula: […]

Bax gene = assay: Quantitative real-time RT-PCR of Bax; type: cell-based, human; conditions: 24 h
Description: as §1

STAT3 [2] = assay: Western blot of STAT3 phosphorylation; type: cell-based, human; conditions: MCF-7 and MCF-7/DOX cells
Description: MCF-7 or MCF-7/DOX cells were incubated with various concentrations of 6b for 24 h. After trypsinization, cells were treated with 1× RIPA lysis buffer (50 mM Tris–HCl, pH 7.4, 150 mM NaCl, 0.25% deoxycholic acid, 1% NP-40, 1 mM EDTA and protease inhibitors) (Amresco, Solon, USA) to extract the total proteins. An aliquot of proteins from the total cell lysates (30 to 60 μg/lane) was separated by sodium dodecyl sulfate (10%) polyacrylamide gel electrophoresis (SDS–PAGE, Bio-Rad Laboratories, Hercules, CA), wet-transferred to NC membrane (Bio-Rad Laboratories, Hercules, CA) and blotted with primary antibodies specific for STAT3, p-STAT3, p-Jak2, Jak2, p-Src, Src, Erk, P-Erk, PARP, cleaved PARP, Bcl-2, Bax, Cyclin D1, P-gp and GAPDH. Bound immuno-complexes were detected using ChemiDOC™ XRS + system (Bio-Rad Laboratories, Hercules, CA).

MCF-7/DOX cells [3] = assay: Flow cytometry of the cell cycle, MCF-7/DOX; type: cell-based, human; conditions: 24 h
Description: MCF-7 or MCF-7/DOX cells were plated in 6-well culture plates (1.5 × 10^5 cells per well). After incubation overnight, various concentrations of 6b or curcumin were added and cells were incubated for 24 h. Cells were harvested, washed with cold PBS, and incubated with pre-cooled 70% ethanol for a minimum of 4 h at 4 °C to fix them. The cells were then centrifuged, carefully aspirated from the supernatant, and re-suspended in a propidium iodide (final concentration, 40 μg/ml) and RNase A (final concentration, 100 μg/ml) solution at a final cell density of 0.5 × 10^6 cells/ml. The suspension was incubated at 37 °C for 30 min prior to analysis by flow cytometry.

MCF-7/DOX cells [4] = assay: MTT anti-proliferative assay, MCF-7/DOX; type: cell-based, human; conditions: Homo sapiens, MCF7-DOX; MTT, 48 h; read-out: MCF-7/DOX IC50 ± SD
Description: as §2, §3

IC50 (MCF-7 cells): 520 ± 160 nM | melting point: 250 to 251 °C | IC50 (MCF-7/DOX cells [4]): 400 ± 10 nM
Compound: COc1ccc(/C=C/C(=O)N2CCN(C(=O)C3=Cc4cc(Br)ccc4S3(=O)=O)CC2)cc1 [Compound 6b, (E)-1-(4-(5-bromo-1,1-dioxidobenzo[b]thiophene-2-carbonyl)piperazin-1-yl)-3-(4-methoxyphenyl)prop-2-en-1-one]
decrease in the gene expression level of Cyclin D1 (Cyclin D1 gene; MCF-7/DOX cells, 1.0 μM): 18.5% | decrease in the gene expression level of Cyclin D1 (Cyclin D1 gene; MCF-7/DOX cells, 2.0 μM): 51.0% | decrease in the gene expression level of Cyclin D1 (Cyclin D1 gene; MCF-7/DOX cells, 4.0 μM): 75.0% | Cyclin D1 gene level (in words) (Cyclin D1 gene; MCF-7 and MCF-7/DOX cells): decreased in a dose-dependent manner | decrease in the gene expression level of Cyclin D1 (Cyclin D1 gene; MCF-7 cells, 1.0 μM): 16.0% | decrease in the gene expression level of Cyclin D1 (Cyclin D1 gene; MCF-7 cells, 2.0 μM): 28.4% | decrease in the gene expression level of Cyclin D1 (Cyclin D1 gene; MCF-7 cells, 4.0 μM): 45.5% | STAT3 DNA-binding activity (STAT3 [1]): strongly inhibited STAT3 DNA-binding activity in a dose-dependent manner | Bax gene expression increase (Bax gene; MCF-7/DOX cells, 1.0 μM): 14.0% | Bax gene expression increase (Bax gene; MCF-7/DOX cells, 2.0 μM): 76.5% | Bax gene expression increase (Bax gene; MCF-7/DOX cells, 4.0 μM): 125.0% | Bax gene level (in words) (Bax gene; MCF-7 and MCF-7/DOX cells): upregulated | Bax gene expression increase (Bax gene; MCF-7 cells, 1.0 μM): 15.0% | Bax gene expression increase (Bax gene; MCF-7 cells, 2.0 μM): 71.5% | Bax gene expression increase (Bax gene; MCF-7 cells, 4.0 μM): 97.5% | p-STAT3 level (STAT3 [2]; 1.0 μM): significantly inhibited | STAT3 phosphorylation at the Ser727 residue (STAT3 [2]; 24 h): little effect | STAT3 phosphorylation at the pTyr705 residue (STAT3 [2]; 24 h): dose-dependent inhibition | total STAT3 protein level (STAT3 [2]; 24 h): little effect | cells in the Sub-G1 phase (MCF-7/DOX cells [3]): significant increase | percentage of cells in the G0/G1 phase (MCF-7/DOX cells [3]): increased

Reference: paper PMC5387716, “Discovery of monocarbonyl curcumin-BTP hybrids as STAT3 inhibitors for drug-sensitive and drug-resistant breast cancer therapy” (Scientific Reports, 2017)
